These results are taken from patent US20240252488A1 (KOREA RESEARCH INSTITUTE OF CHEMICAL TECHNOLOGY, priority 2020, published 2024).

For test [1], the system named is FADD−/− Jurkat cells. The test is described as follows: Necroptosis inhibition assay, TNF-α-induced necroptosis (CellTiter-Glo 2.0). It is filed as cell-based, human. The conditions noted are these: TNF-α 15 ng/mL; for Necroptosis inhibition assay (Rescue %) 1 μM: compound 1 μM; for Necroptosis inhibition assay (Rescue %) 10 μM: compound 10 μM. Summed up: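 Cmpd 0.1/1/10 μM final, 30 min RT preincubation; TNF-α 15 ng/mL final; 20–24 h, 37° C, 5% CO2. Readout: ATP luminescence (reagent 1:3 in PBS), 0.5 s/well. Cytotoxicity and % necroptosis inhibition calculated from signal.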
On the technique in general: ATP-based viability assays read luminescence as a measure of living cells.

For test [2], the target named is T1, MLKL (Homo sapiens, UniProt Q8NB16).
T1 sequence (Q8NB16 1-471): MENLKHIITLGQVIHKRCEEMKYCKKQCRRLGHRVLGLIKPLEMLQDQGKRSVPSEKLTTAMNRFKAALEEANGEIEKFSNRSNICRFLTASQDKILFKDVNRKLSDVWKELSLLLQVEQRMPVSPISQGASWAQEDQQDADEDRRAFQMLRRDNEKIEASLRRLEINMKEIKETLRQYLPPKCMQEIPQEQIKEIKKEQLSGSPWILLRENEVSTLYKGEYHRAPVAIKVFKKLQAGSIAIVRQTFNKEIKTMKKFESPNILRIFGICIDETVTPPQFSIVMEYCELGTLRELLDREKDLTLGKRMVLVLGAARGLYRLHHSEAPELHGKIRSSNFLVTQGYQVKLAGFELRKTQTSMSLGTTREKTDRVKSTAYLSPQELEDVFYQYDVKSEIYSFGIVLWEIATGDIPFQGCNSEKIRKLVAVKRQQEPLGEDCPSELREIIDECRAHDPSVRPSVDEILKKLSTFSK
As to the kind of experiment: MLKL degradation assay in HepG2 cell line (western blot). It is filed as cell-based. Also noted: endogenous in cells; host or cells: HepG2 or HaCaT. Particulars: cell line not given; for Degradation assay (Degradation %) 1 μM: compound 1 μM; for Degradation assay (Degradation %) 10 μM: compound 10 μM. Summed up: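 HepG2, cpd final 1 or 10 μM, 20-24 h, 37 °C/5% CO2; RIPA lysis, BCA-normalized, 10-15 μg/lane SDS-PAGE, western blot, ECL read-out.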
(Immunoblotting shows a protein as a band on a membrane.)

The target of test [3] is T1, MLKL. As to the kind of experiment: Measurement of binding affinity with MLKL receptor (competitive binding assay, Kd). Also on record: made in house; host or cells: HEK 293 cell line (T7 phage in E. coli BL21-derived host is also described). In short, it runs like this: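 Competitive displacement of MLKL, expressed in HEK 293 cells and DNA-tagged for qPCR, from immobilized ligand on biotin-blocked beads. Compounds were added from 111× DMSO stocks (final DMSO 0.9%). Kinase left in the eluates was quantified by qPCR to give Kd.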

The Kd is the constant that tells how readily two partners part at equilibrium. The low end stands for tighter binding, the high end for weaker binding. As to `Nc1ncc(-c2cnn(C3CCN(C(=O)C4CCN(C(=O)C5CCN(c6ccc7c(c6)C(=O)N(C6CCC(=O)NC6=O)C7=O)CC5)CC4)CC3)c2)nc1C(=O)OC(C(=O)Nc1ccc(F)cc1)c1ccccc1` (stereo not shown) [TDH-274, 2-((4-fluorophenyl)amino)-2-oxo-1-phenylethyl 3-amino-6-(1-(1-(1-(1-(2-(2,6-dioxopiperidin-3-yl)-1,3-dioxoisoindolin-5-yl)piperidine-4-carbonyl)piperidine-4-carbonyl)piperidin-4-yl)-1H-pyrazol-4-yl)pyrazine-2-carboxylate], in test [1], the “Necroptosis inhibition assay (Rescue %) 1 μM” value came to 77.01% and the “Necroptosis inhibition assay (Rescue %) 10 μM” value stood at 57.62%. In addition, in test [2], the “Degradation assay (Degradation %) 1 μM” value is recorded as 56.81% and the “Degradation assay (Degradation %) 10 μM” value worked out at 38.77%. Further, the affinity in test [3], expressed as Kd, was 5.2 nM.
The like results for `Nc1ncc(-c2cn(C3CCN(CC4CCN(C(=O)C5CCN(c6cccc7c6C(=O)N(C6CCC(=O)NC6=O)C7=O)CC5)CC4)CC3)nn2)nc1C(=O)OC(C(=O)Nc1ccc(F)cc1)c1ccccc1` (stereo not shown) [TDH-222, 2-((4-fluorophenyl)amino)-2-oxo-1-phenylethyl 3-amino-6-(1-(1-((1-(1-(2-(2,6-dioxopiperidin-3-yl)-1,3-dioxoisoindolin-4-yl)piperidine-4-carbonyl)piperidin-4-yl)methyl)piperidin-4-yl)-1H-1,2,3-triazol-4-yl)pyrazine-2-carboxylate] were, in that order, 45.31%, 34.2%, 37.4%, 30.04% and 16 nM.
As to `COc1cccc(NC(=O)[C@H](OC(=O)c2nc(-c3cnn(C4CCN(CCCN5CCN(C(=O)COc6ccc7c(c6)C(=O)N(C6CCC(=O)NC6=O)C7=O)CC5)CC4)c3)cnc2N)c2ccccc2)c1` (stereo partly drawn) [TDH-486, (R)-2-((3-methoxyphenyl)amino)-2-oxo-1-phenylethyl 3-amino-6-(1-(1-(3-(4-(2-((2-(2,6-dioxopiperidin-3-yl)-1,3-dioxoisoindolin-5-yl)oxy)acetyl)piperazin-1-yl)propyl)piperidin-4-yl)-1H-pyrazol-4-yl)pyrazine-2-carboxylate], in test [1] (FADD−/− Jurkat cells), the “Necroptosis inhibition assay (Rescue %) 1 μM” value is 77.72% and the “Necroptosis inhibition assay (Rescue %) 10 μM” value came to 34.5%. Further, in test [2], the “Degradation assay (Degradation %) 1 μM” value amounted to 85.37% and the “Degradation assay (Degradation %) 10 μM” value stood at 88.15%. Also, binding in test [3] was put at a Kd of 2.5 nM.
For `Nc1ncc(-c2cnn(C3CCN(CC4CCN(C(=O)CC5CCN(c6ccc7c(c6)C(=O)N(C6CCC(=O)NC6=O)C7=O)CC5)CC4)CC3)c2)nc1C(=O)O[C@@H](C(=O)Nc1ccc(F)cc1)c1ccccc1` (stereo partly drawn) [TDH-205, (R)-2-((4-fluorophenyl)amino)-2-oxo-1-phenylethyl 3-amino-6-(1-(1-((1-(2-(1-(2-(2,6-dioxopiperidin-3-yl)-1,3-dioxoisoindolin-5-yl)piperidin-4-yl)acetyl)piperidin-4-yl)methyl)piperidin-4-yl)-1H-pyrazol-4-yl)pyrazine-2-carboxylate], in test [1], the “Necroptosis inhibition assay (Rescue %) 1 μM” value was 59.88% and the “Necroptosis inhibition assay (Rescue %) 10 μM” value is 41.34%. Moreover, in test [2], the “Degradation assay (Degradation %) 1 μM” value stood at 57.56% and the “Degradation assay (Degradation %) 10 μM” value is given as 36.05%. The compound also returned a Kd in test [3] of 6.7 nM.
The like results for `Nc1ncc(-c2cnn(C3CCN(CC4CCN(CC(=O)N5CC(Nc6cccc7c6C(=O)N(C6CCC(=O)NC6=O)C7=O)C5)CC4)CC3)c2)nc1C(=O)OC(C(=O)Nc1ccc(F)cc1)c1ccccc1` (stereo not shown) [TDH-271, 2-((4-fluorophenyl)amino)-2-oxo-1-phenylethyl 3-amino-6-(1-(1-((1-(2-(3-((2-(2,6-dioxopiperidin-3-yl)-1,3-dioxoisoindolin-4-yl)amino)azetidin-1-yl)-2-oxoethyl)piperidin-4-yl)methyl)piperidin-4-yl)-1H-pyrazol-4-yl)pyrazine-2-carboxylate] were, in that order, 45.32%, 76.94%, 1.47%, 4.22% and 85 nM.
On to `COc1ccc(C(=O)N2CCC(C(=O)N3CCC(CN4CCC(CCN5CCC(n6cc(-c7cnc(N)c(C(=O)O[C@@H](C(=O)Nc8ccc(F)cc8)c8ccccc8)n7)cn6)CC5)CC4)CC3)CC2)cc1N1CCC(=O)NC1=O` [TDH-511, (R)-2-((4-fluorophenyl)amino)-2-oxo-1-phenylethyl 3-amino-6-(1-(1-(2-(1-((1-(1-(3-(2,4-dioxotetrahydropyrimidin-1(2H)-yl)-4-methoxybenzoyl)piperidine-4-carbonyl)piperidin-4-yl)methyl)piperidin-4-yl)ethyl)piperidin-4-yl)-1H-pyrazol-4-yl)pyrazine-2-carboxylate], for which, in test [1] (FADD−/− Jurkat cells), the “Necroptosis inhibition assay (Rescue %) 1 μM” value is 32.32% and the “Necroptosis inhibition assay (Rescue %) 10 μM” value is reported as 46.16%. Moreover, in test [2], the “Degradation assay (Degradation %) 1 μM” value is recorded as 81.08% and the “Degradation assay (Degradation %) 10 μM” value was 91.73%. The Kd in test [3] was 0.24 nM.
The corresponding values for `Nc1ncc(-c2cnn(C3CCN(C(=O)CCC4CCN(c5ccc6c(c5)C(=O)N(C5CCC(=O)NC5=O)C6=O)CC4)CC3)c2)nc1C(=O)O[C@@H](C(=O)Nc1ccc(F)cc1)c1ccccc1` (stereo partly drawn) [TDH-420, (R)-2-((4-fluorophenyl)amino)-2-oxo-1-phenylethyl 3-amino-6-(1-(1-(3-(1-(2-(2,6-dioxopiperidin-3-yl)-1,3-dioxoisoindolin-5-yl)piperidin-4-yl)propanoyl)piperidin-4-yl)-1H-pyrazol-4-yl)pyrazine-2-carboxylate] are 8.39%, 2.00%, 74.57%, 51.38% and 10 nM.
`Nc1ncc(-c2cn(C3CCN(CC4CCN(C(=O)CNc5cccc6c5C(=O)N(C5CCC(=O)NC5=O)C6=O)CC4)CC3)nn2)nc1C(=O)OC(C(=O)Nc1ccc(F)cc1)c1ccccc1` (stereo not shown) [TDH-224, 2-((4-fluorophenyl)amino)-2-oxo-1-phenylethyl 3-amino-6-(1-(1-((1-((2-(2,6-dioxopiperidin-3-yl)-1,3-dioxoisoindolin-4-yl)glycyl)piperidin-4-yl)methyl)piperidin-4-yl)-1H-1,2,3-triazol-4-yl)pyrazine-2-carboxylate]: in test [1], the “Necroptosis inhibition assay (Rescue %) 1 μM” value is 63.63% and the “Necroptosis inhibition assay (Rescue %) 10 μM” value came to 67.66%. Also, in test [2], the “Degradation assay (Degradation %) 1 μM” value is recorded as 49.26% and the “Degradation assay (Degradation %) 10 μM” value is 56.93%. The same compound showed a Kd in test [3] of 19 nM.
As to `Nc1ncc(-c2cnn(C3CCN(CC4CCN(CC5CCN(C(=O)c6ccc7c(N8CCC(=O)NC8=O)coc7c6)CC5)CC4)CC3)c2)nc1C(=O)O[C@@H](C(=O)Nc1ccc(F)cc1)c1ccccc1` [TDH-555, (R)-2-((4-fluorophenyl)amino)-2-oxo-1-phenylethyl 3-amino-6-(1-(1-((1-((1-(3-(2,4-dioxotetrahydropyrimidin-1(2H)-yl)benzofuran-6-carbonyl)piperidin-4-yl)methyl)piperidin-4-yl)methyl)piperidin-4-yl)-1H-pyrazol-4-yl)pyrazine-2-carboxylate], in test [1] (FADD−/− Jurkat cells), the “Necroptosis inhibition assay (Rescue %) 1 μM” value stood at 47.10% and the “Necroptosis inhibition assay (Rescue %) 10 μM” value is recorded as −51.39%. For the same compound, in test [2], the “Degradation assay (Degradation %) 1 μM” value is 78.56%. Moreover, binding in test [3] was characterised by a dissociation constant (Kd) of 0.22 nM.
Turning to `Nc1ncc(-c2cnn(C3CCN(C(=O)c4cn(C5CCN(C(=O)C6CCN(c7cccc8c7C(=O)N(C7CCC(=O)NC7=O)C8=O)CC6)CC5)cn4)CC3)c2)nc1C(=O)O[C@@H](C(=O)Nc1ccc(F)cc1)c1ccccc1` (stereo partly drawn) [TDH-362, (R)-2-((4-fluorophenyl)amino)-2-oxo-1-phenylethyl 3-amino-6-(1-(1-(1-(1-(1-(2-(2,6-dioxopiperidin-3-yl)-1,3-dioxoisoindolin-4-yl)piperidine-4-carbonyl)piperidin-4-yl)-1H-imidazole-4-carbonyl)piperidin-4-yl)-1H-pyrazol-4-yl)pyrazine-2-carboxylate], in test [1], the “Necroptosis inhibition assay (Rescue %) 1 μM” value was found to be 17.89% and the “Necroptosis inhibition assay (Rescue %) 10 μM” value is listed as 16.12%. In test [2], the “Degradation assay (Degradation %) 1 μM” value is 69.87% and the “Degradation assay (Degradation %) 10 μM” value stood at 69.78%. Binding in test [3] was put at a Kd of 5.5 nM.
